{
  "source": "BindingDB's records for patent US10087187",
  "about": "(Janssen Pharmaceutica, 2018)",
  "key": {"[1]": {"molecular_target": "Phosphatidylinositol 4,5-bisphosphate 3-kinase catalytic subunit alpha isoform (Homo sapiens, UniProt P42336)", "sequence (P42336 whole entry, canonical isoform)": "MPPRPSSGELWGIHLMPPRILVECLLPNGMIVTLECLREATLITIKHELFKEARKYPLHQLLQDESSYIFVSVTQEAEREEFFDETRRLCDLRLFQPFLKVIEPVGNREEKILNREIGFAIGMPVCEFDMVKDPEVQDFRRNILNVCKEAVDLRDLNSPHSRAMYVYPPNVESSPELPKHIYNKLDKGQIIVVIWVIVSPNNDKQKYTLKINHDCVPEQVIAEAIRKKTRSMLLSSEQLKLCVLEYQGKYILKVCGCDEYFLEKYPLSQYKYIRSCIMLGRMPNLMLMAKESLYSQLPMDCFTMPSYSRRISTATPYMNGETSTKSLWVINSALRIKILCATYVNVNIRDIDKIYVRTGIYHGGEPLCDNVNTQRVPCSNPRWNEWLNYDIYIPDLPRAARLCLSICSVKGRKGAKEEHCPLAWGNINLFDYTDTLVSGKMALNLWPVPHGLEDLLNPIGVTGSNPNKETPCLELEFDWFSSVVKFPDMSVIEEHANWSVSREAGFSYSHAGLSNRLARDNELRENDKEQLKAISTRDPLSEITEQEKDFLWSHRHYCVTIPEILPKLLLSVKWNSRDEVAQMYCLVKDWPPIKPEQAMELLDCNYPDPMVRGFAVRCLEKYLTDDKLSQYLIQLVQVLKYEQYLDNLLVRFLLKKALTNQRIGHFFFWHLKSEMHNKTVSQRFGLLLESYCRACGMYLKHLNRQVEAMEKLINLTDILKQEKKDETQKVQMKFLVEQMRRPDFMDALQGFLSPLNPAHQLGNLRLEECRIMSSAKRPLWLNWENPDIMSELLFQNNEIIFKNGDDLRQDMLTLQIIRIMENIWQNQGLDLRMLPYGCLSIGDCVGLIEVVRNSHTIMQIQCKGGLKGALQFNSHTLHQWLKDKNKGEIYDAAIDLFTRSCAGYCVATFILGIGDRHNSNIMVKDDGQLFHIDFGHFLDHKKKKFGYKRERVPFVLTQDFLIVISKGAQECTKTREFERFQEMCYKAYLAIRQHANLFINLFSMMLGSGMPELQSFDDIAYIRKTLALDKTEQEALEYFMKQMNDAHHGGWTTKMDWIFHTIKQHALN", "assay": "KINOMEscan Enzyme Binding Assays", "procedure": "(§1) Kinase enzyme binding affinities of compounds disclosed herein were determined using the KINOMEscan technology performed by DiscoveRx Corporation, San Diego, Calif., USA (www.kinomescan.com)."}, "[2]": {"molecular_target": "Phosphatidylinositol 4,5-bisphosphate 3-kinase catalytic subunit beta isoform (Homo sapiens, UniProt P42338)", "sequence (P42338 whole entry, canonical isoform)": "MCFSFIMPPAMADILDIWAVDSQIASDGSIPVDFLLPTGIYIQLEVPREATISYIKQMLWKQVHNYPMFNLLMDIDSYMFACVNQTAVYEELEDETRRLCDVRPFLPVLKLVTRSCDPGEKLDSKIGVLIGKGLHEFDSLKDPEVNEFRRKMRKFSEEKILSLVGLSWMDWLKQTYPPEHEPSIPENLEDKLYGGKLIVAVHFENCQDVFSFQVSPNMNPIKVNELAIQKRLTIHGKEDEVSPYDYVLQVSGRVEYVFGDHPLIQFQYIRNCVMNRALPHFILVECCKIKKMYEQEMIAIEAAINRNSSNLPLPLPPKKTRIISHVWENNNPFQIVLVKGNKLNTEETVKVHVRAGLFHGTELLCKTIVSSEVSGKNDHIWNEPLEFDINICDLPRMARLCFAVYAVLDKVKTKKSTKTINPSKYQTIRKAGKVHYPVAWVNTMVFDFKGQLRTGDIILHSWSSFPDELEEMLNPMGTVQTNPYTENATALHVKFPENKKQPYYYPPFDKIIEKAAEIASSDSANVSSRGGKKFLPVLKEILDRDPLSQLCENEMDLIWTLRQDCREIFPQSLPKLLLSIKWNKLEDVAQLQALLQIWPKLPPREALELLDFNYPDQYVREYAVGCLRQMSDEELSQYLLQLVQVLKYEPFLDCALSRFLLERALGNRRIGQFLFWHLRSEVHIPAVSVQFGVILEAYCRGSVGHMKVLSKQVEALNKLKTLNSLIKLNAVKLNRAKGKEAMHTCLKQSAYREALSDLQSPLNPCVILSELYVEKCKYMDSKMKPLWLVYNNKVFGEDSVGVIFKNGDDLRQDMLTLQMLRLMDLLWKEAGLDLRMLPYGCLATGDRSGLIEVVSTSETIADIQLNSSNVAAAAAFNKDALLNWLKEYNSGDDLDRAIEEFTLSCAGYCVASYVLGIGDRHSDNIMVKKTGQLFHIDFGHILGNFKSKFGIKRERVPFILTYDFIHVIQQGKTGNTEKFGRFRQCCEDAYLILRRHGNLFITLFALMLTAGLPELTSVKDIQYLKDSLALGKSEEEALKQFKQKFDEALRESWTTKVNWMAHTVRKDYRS", "assay": "KINOMEscan Enzyme Binding Assays", "procedure": "as §1"}},
  "data": [
    {"smiles": "CCc1c(F)cccc1Cc1c(CNCCO)nc2c(N)cc(N3CCOCC3)nn12", "note": "[US10087187, Compound 101]", "values": [
      {"measurement": "Kd", "setting": "[1]", "value": 5.89, "unit": "µM"},
      {"measurement": "Kd", "setting": "[2]", "value": 6.2, "unit": "nM"}
    ]},
    {"smiles": "Cc1c(Cc2c(CO)nc3c(-c4cnc[nH]4)cc(N4CCOCC4)nn23)cccc1C(F)(F)F", "note": "[US10087187, Compound 19]", "values": [
      {"measurement": "Kd", "setting": "[1]", "value": 0.886, "unit": "µM"},
      {"measurement": "Kd", "setting": "[2]", "value": 1.9, "unit": "nM"}
    ]}
  ]
}
